Results taken from PMC7251097, “Aspartate/asparagine-β-hydroxylase: a high-throughput mass spectrometric assay for discovery of small molecule inhibitors” (Scientific Reports, 2020).
Counter-ions that a name gives are not always drawn. Like-named read-outs stand apart in the source and are kept apart here.

Biological target: T1, His6-AspH315–758 (human aspartate/asparagine-β-hydroxylase, AspH) (Homo sapiens, UniProt Q12797)
T1 construct: N-Terminally His6-tagged human AspH315–758 (His6-AspH315–758) was produced in E. coli BL21 (DE3) cells; made in house; host or cells: E. coli BL21 (DE3), pET-28a(+) vector
T1 sequence (Q12797 315-758): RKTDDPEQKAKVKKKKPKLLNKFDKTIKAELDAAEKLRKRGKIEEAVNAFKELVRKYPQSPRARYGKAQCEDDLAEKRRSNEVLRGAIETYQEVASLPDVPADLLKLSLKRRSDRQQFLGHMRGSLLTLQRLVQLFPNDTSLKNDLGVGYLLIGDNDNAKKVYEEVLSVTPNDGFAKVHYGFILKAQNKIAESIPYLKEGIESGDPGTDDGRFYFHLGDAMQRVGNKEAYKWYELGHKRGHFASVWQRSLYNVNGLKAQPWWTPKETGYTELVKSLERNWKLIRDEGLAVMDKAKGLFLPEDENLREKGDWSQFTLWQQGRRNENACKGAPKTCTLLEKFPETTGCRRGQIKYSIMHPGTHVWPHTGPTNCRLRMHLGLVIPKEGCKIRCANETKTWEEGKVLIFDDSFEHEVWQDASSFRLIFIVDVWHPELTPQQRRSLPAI
Test: SPE-MS AspH inhibition assay (LOPAC screen at fixed 20 μM and IC50 dose-response), hydroxylation of cyclic peptide hFX-CP101–119
Format: biochemical

[1] = LOPAC Plate 4, compound at 20 uM, substrate conversion
[2] = LOPAC compound at 20uM, plate 2, conversion of substrate peptide
[3] = LOPAC compound at 20uM, plate 2, normalised to DMSO and 2,4-PDCA controls, read-out: Plate 2 (% inhibition)
[4] = LOPAC compound at fixed 20 uM, plate 1, normalised to DMSO and 2,4-PDCA controls
[5] = LOPAC compound at fixed 20 uM, substrate conversion, plate 1
[6] = plate 5 (Pfitzer), test compounds at fixed 20 μM
[7] = plate 5 (Pfitzer), test compounds at fixed 20 μM, mean conversion DMSO 32.88
[8] = LOPAC compound at 20uM, plate 3, conversion of substrate peptide

CCN(CC)CCOC(=O)c1cc(Cl)c(N)cc1OC.Cl [SDZ-205,557 hydrochloride]
% inhibition (LOPAC Plate 4, compound at 20 uM): -2.39% | % conversion [1]: 37.29%

Fc1ccc(C(c2ccc(F)cc2)N2CCN(C/C=C/c3ccccc3)CC2)cc1 [Flunarizine dihydrochloride]
Plate 2 (% conversion) [2]: 46.32% | inhibition at 20 µM [3]: -31%

Cn1ccc2cc3c(cc21)CCN3C(=O)Nc1cccnc1 [SB 206553 hydrochloride]
% conversion: 28.82%

NN=C(N)N.NN=C(N)N.O=S(=O)(O)O [Aminoguanidine hemisulfate]
Plate 1 (% inhibition) [4]: 3.68% | Plate 1 (% conversion) [5]: 34.64%

C[C@@H](Oc1cc(-c2cnn(C3CCNCC3)c2)cnc1N)c1c(Cl)ccc(F)c1Cl [Crizotinib]
Plate 5 (% inhibition) [6]: -31.92% | Plate 5 (% conversion) [7]: 47.18%

N#C/C(=C\c1cn(-c2ccccc2)c2ccccc12)C(=O)O [UK-5099]
Plate 5 (% inhibition) [6]: 37.56% | Plate 5 (% conversion) [7]: 23.53%

CCCCNc1cc(C(=O)O)cc(S(N)(=O)=O)c1Oc1ccccc1 [Bumetanide]
Plate 1 (% inhibition) [4]: 3.08% | Plate 1 (% conversion) [5]: 34.84%

OCCN(CCO)c1nc(N2CCCCC2)c2nc(N(CCO)CCO)nc(N3CCCCC3)c2n1 [Dipyridamole]
Plate 2 (% conversion) [2]: 42.60% | inhibition at 20 µM [3]: -19.9%

O=c1[nH]c(=O)n(C2CCCO2)cc1F (stereo not shown) [Tegafur]
% conversion [1]: 31.54%

Oc1ccccc1O [Pyrocatechol]
Plate 1 (% conversion): 10.12% | Plate 1 (% inhibition) [4]: 76.68%

Nc1ccncc1 [4-Aminopyridine]
Plate 1 (% conversion): 34.98%

C=CCc1ccccc1OCC(O)CNC1(C)CCC(C(C)(C)NC(=O)CBr)CC1 (stereo not shown) [Bromoacetyl alprenolol menthane]
Plate 1 (% conversion): 65.73% | Plate 1 (% inhibition): -88.92%

Cc1cc(C)c(/C=C2\C(=O)Nc3ccc(Cl)cc32)[nH]1 [SU5614]
Plate 5 (% inhibition) [6]: 8.69%

CC(=O)SCC[N+](C)(C)C.[Cl-] [Acetylthiocholine chloride]
Plate 1 (% conversion): 37.52% | Plate 1 (% inhibition): -4.90%

CN(C)CCCN1c2ccccc2CCc2ccc(Cl)cc21 [Clomipramine hydrochloride]
Plate 1 (% inhibition) [4]: -22.34% | Plate 1 (% conversion) [5]: 43.38%

CC[C@]1(O)C[C@@H]2CN(CCc3c([nH]c4ccccc34)[C@@](C(=O)OC)(c3cc4c(cc3OC)N(C)[C@H]3[C@@](O)(C(=O)OC)[C@H](OC(C)=O)[C@]5(CC)C=CCN6CC[C@]43[C@@H]65)C2)C1.O=S(=O)(O)O [Vinblastine sulfate salt]
% conversion: 54.00% | % inhibition (20 µM): -51.36%

Cc1ncc(CNC(=O)N(CCCl)N=O)c(N)n1 [Nimustine hydrochloride]
Plate 3 (% conversion): 38.40%

NC(CP(=O)(O)O)C(=O)O (racemic) [(±)-2-Amino-3-phosphonopropionic acid]
Plate 1 (% conversion): 38.27% | Plate 1 (% inhibition): -7.14%

CC1(N2CCC(n3c([C@@H]4CCCNC4)nc4ccccc43)CC2)CCCCCCC1 [MCOPPB]
Plate 5 (% conversion): 39.16% | Plate 5 (% inhibition): -8.35%

CCN(CC)CCOc1ccc(Nc2ncc3cc(-c4c(Cl)cccc4Cl)c(=O)n(C)c3n2)cc1.O [PD-166285 hydrate]
% conversion: 50.97% | % inhibition (20 µM): -42.48%

CC(=O)OC(C)C[N+](C)(C)C.[Cl-] (stereo not drawn) [Acetyl-beta-methylcholine chloride]
Plate 1 (% inhibition) [4]: -15.64% | Plate 1 (% conversion) [5]: 41.13%

C#CCN(C)CCCOc1ccc(Cl)cc1Cl [Clorgyline hydrochloride]
Plate 3 (% conversion) [8]: 42.76%

O=C(O)Cc1ccccc1Nc1c(Cl)cccc1Cl [Diclofenac sodium]
Plate 2 (% conversion) [2]: 32.33% | inhibition at 20 µM [3]: 10.8%

NS(=O)(=O)c1ccc(-n2nc(C(F)(F)F)cc2-c2ccc(Cl)cc2)cc1 [SC-236]
Plate 3 (% conversion) [8]: 40.00% | Plate 5 (% inhibition) [6]: -23.50% | Plate 5 (% conversion) [7]: 44.31%

COC(=O)C1=C(C)NC(C)=C(C(=O)OC(C)(C)CN(C)CCC(c2ccccc2)c2ccccc2)C1c1cccc([N+](=O)[O-])c1.COC(=O)C1=C(C)NC(C)=C(C(=O)OC(C)(C)CN(C)CCC(c2ccccc2)c2ccccc2)C1c1cccc([N+](=O)[O-])c1.Cl.Cl.O (stereo not shown) [Lercanidipine hydrochloride hemihydrate]
Plate 1 (% inhibition) [4]: 25.41% | Plate 1 (% conversion) [5]: 27.34%

CC(=O)[C@H]1CC[C@H]2[C@@H]3CC=C4C[C@@H](OS(=O)(=O)[O-])CC[C@]4(C)[C@H]3CC[C@]12C.[Na+] [Pregnenolone sulfate sodium]
% conversion: 34.01% | % inhibition (20 µM): 7.19%

CN1CCN(CCCN2c3ccccc3Sc3ccc(Cl)cc32)CC1 [Prochlorperazine dimaleate]
% conversion [1]: 48.18%

CC(C)(C)OC(=O)NC1[C@H]2CNC[C@@H]12 (stereo partly shown) [CP-101537]
Plate 3 (% conversion): 33.25% | Plate 5 (% conversion): 36.34% | Plate 5 (% inhibition): -0.06%

Cl.Cn1c(CCCC(=O)O)nc2cc(N(CCCl)CCCl)ccc21 [Bendamustine hydrochloride]
Plate 2 (% conversion): 39.38% | Plate 2 (% inhibition) (20 µM): -10.22%

CC[n+]1c(/C=C/C=C2/N(C)c3ccccc3C2(C)C)sc2ccccc21.[I-] [AC-93253 iodide]
Plate 2 (% conversion): 41.62% | Plate 2 (% inhibition) (LOPAC compound at 20uM, plate 2, normalised to DMSO and 2,4-PDCA controls): -16.93%

NC(=O)C(=O)O [Sodium Oxamate]
Plate 3 (% conversion) [8]: 31.22%

CN1CCC(=C2c3ccccc3C=Cc3ccccc32)CC1 [Cyproheptadine hydrochloride]
Plate 1 (% inhibition) [4]: -17.18% | Plate 1 (% conversion) [5]: 41.64%

C[N+]1(C)[C@@H]2CC[C@H]1C[C@@H](OC(=O)C(CO)c1ccccc1)C2 (stereo partly shown) [Atropine methyl nitrate]
Plate 1 (% inhibition) [4]: 2.78% | Plate 1 (% conversion) [5]: 34.94%

N[C@@H](Cc1c[nH]c2ccccc12)C(=O)O [L-Tryptophan]
% conversion [1]: 29.06%

O=C(N/N=C/c1c(O)ccc2ccccc12)c1ccncc1 [AS-8351, reference compound]
IC50 (50 nM His6-AspH315–758, 1.0 μM hFX-CP101–119, 3 μM 2OG, 2 μM Fe(II), 50 mM HEPES pH 7.5, 20 °C, mean ± SD, n = 2 (2,4-PDCA n = 10), read-out: IC50): 3.07 ± 0.43 µM

COCCOC(=O)C1=C(C)NC(C)=C(C(=O)OC(C)C)C1c1cccc([N+](=O)[O-])c1 (stereo not shown) [Nimodipine]
Plate 3 (% conversion) [8]: 43.84%

COc1ccc(C2CNC(=O)C2)cc1OC1CCCC1 (stereo not shown) [Rolipram]
% conversion [1]: 37.72% | inhibition at 20 µM (LOPAC Plate 4, compound at 20 uM, read-out: % inhibition): -3.65%

CC[C@H](CO)Nc1nc(NCc2ccccc2)c2ncn(C(C)C)c2n1 [Roscovitine]
Plate 1 (% conversion): 40.73% | Plate 1 (% inhibition): -14.45%

C[C@]12C=CC(=O)C=C1CC[C@H]1[C@@H]3C[C@@H](O)[C@](O)(C(=O)CO)[C@@]3(C)C[C@H](O)[C@@]12F [Triamcinolone]
% conversion [1]: 30.89%

NC(=O)CC[C@H](N)C(=O)O [L-Glutamine]
Plate 2 (% conversion) [2]: 35.03% | inhibition at 20 µM [3]: 2.77%

C[C@]12CC[C@@H]3c4ccc(O)cc4C[C@@H](CCCCCCCCC[S+]([O-])CCCC(F)(F)C(F)(F)F)[C@H]3[C@@H]1CC[C@@H]2O (stereo partly shown) [Fulvestrant]
Plate 1 (% inhibition) [4]: 12.89% | Plate 1 (% conversion) [5]: 31.54%

NCCc1c[nH]cn1 [Histamine dihydrochloride]
Plate 2 (% conversion) [2]: 39.28% | inhibition at 20 µM [3]: -9.92%

O=NN(CCCl)C(=O)NCCCl [Carmustine]
Plate 1 (% conversion): 39.33% | Plate 1 (% inhibition) [4]: -10.30%

COC(=O)C1=C(C)NC(C)=C(C(=O)OCCN(C)Cc2ccccc2)C1c1cccc([N+](=O)[O-])c1 (stereo not shown) [Nicardipine hydrochloride]
Plate 3 (% conversion) [8]: 44.76%

C[C@@H]1O[C@@H](O[C@H]2C[C@@H](O)[C@]3(CO)[C@H]4[C@H](O)C[C@]5(C)[C@@H]([C@@H]6COC(=O)C6)CC[C@]5(O)[C@@H]4CC[C@]3(O)C2)[C@H](O)[C@H](O)[C@H]1O [Dihydroouabain]
Plate 2 (% conversion): 38.16% | Plate 2 (% inhibition) (20 µM): -6.59%
